Test results published in patent publication US8263821B2, “Non-invasive real-time in vivo bioluminescence imaging of local CaÂ2+ dynamics in living organisms” (priority 2004, dated 2012).

Key:
cortical neurons = assay: Single-cell Ca2+ induced bioluminescence in cortical neurons transfected with GA; format: cell-based; conditions: GA reconstituted with h coelenterazine
Experimental: Cultures were plated on to glass-bottomed dishes and mounted to a stage adapter on a fully automated inverted microscope mounted in a black-box. GFP-Aequorin was reconstituted with 2.5-5 μM coelenterazine for 30 minutes at 37° C. Incubation of cells with coelenterazine that had been transfected with SynGA was undertaken at room temperature to reduce the consumption of the photoprotein during the reconstitution process. Cells were perfused with tyrodes buffer. Prior to bath application of NMDA, cells were perfused for 1 minute without Mg^2+. All recordings were made at room temperature (22-25° C.). […]
The fluorescence/bioluminescence wide field microscopy system was custom built by ScienceWares, Inc. The system includes a fully automated inverted microscope (200M, Zeiss Germany) and is housed in a light-tight dark box. […] Low level light emission (photon rate <100 kHz), was collected using an Image Photon Detector (IPD 3, Photek Ltd.) connected to the baseport of the microscope, which assigns an X, Y coordinate and time point for each detected photon (Miller et al., 1994). The system is fully controlled by the data acquisition software, which also converts single photon events into an image that can be superimposed with brightfield or fluorescence images made by a connected CCD camera to the C-port (Coolsnap HQ, Roper Scientific). […]

[1] = tested on: Ca2+ oscillations in somatosensory cortex slices; assay: Mitochondrial Ca2+ oscillations (bioluminescence) in organotypic cortical slices from mtGA transgenic mice; format: cell-based, mouse; conditions: D-APV 50 μM; slices from P4 mtGA mice, 4-5 days in culture

## [Cl-].[K+] [KCl]
Cortical neurons; KCl 90 mM
  Ca2+ induced bioluminescence signal after stimulation: robust signal

## CN[C@H](CC(=O)O)C(=O)O [NMDA]
Cortical neurons; NMDA 100 μM
  Ca2+ induced bioluminescence signal after stimulation: robust signal

## N[C@H](CCCP(=O)(O)O)C(=O)O [D-APV]
[1]
  block of Ca2+ oscillations generated by removal of Mg2+ from the buffer: completely and reversibly blocked
